Reference: ChEMBL document CHEMBL3997761 (Medchemcomm, 2016)
Active and inactive are the calls of the source. No cut-off for these calls is given here.

What was measured:
Mus musculus [1] = experiment: Antiinflammatory activity in ICR mouse assessed as inhibition of xylene-induced ear edema at 16.7 umol/kg, po pretreated for 30 mins followed by xylene administration measured after 2 hrs relative to control; format: functional, organism-based
[2] = Induction of nanoparticle formation in ultrapure water assessed as nanoparticle size at 1 uM by transmission electron microscopic method
[3] = Induction of nanoparticle formation in ultrapure water assessed as nanoparticle size at 10 uM by transmission electron microscopic method
K562 [4] = experiment: Antiproliferative activity against human K562 cells after 48 hrs by MTT assay; format: functional, cell-based; conditions: K562, 48 h
HT-29 = experiment: Antiproliferative activity against human HT-29 cells after 48 hrs by MTT assay; format: functional, cell-based; conditions: HT-29, 48 h
HeLa = experiment: Antiproliferative activity against human HeLa cells after 48 hrs by MTT assay; format: functional, cell-based
SH-SY5Y = experiment: Antiproliferative activity against human SH-SY5Y cells after 48 hrs by MTT assay; format: functional, cell-based
K562 [5] = experiment: Induction of apoptosis in human K562 cells assessed as late apoptotic cells at 10 uM after 12 hrs by Annexin V-FITC/propidium iodide staining based flow cytometry (reference value: 1.7%); format: functional
K562 [6] = experiment: Induction of apoptosis in human K562 cells assessed as necrotic cells at 10 uM after 12 hrs by Annexin V-FITC/propidium iodide staining based flow cytometry (reference value: 0.6%); format: functional
K562 [7] = experiment: Induction of apoptosis in human K562 cells assessed as live cells at 10 uM after 12 hrs by Annexin V-FITC/propidium iodide staining based flow cytometry (reference value: 91.6%); format: functional
K562 [8] = experiment: Induction of apoptosis in human K562 cells assessed as early apoptotic cells at 10 uM after 12 hrs by Annexin V-FITC/propidium iodide staining based flow cytometry (reference value: 5.1%); format: functional
K562 [9] = experiment: Induction of apoptosis in human K562 cells assessed as live cells at 10 uM after 24 hrs by Annexin V-FITC/propidium iodide staining based flow cytometry (reference value: 94.3%); format: functional
K562 [10] = experiment: Induction of apoptosis in human K562 cells assessed as early apoptotic cells at 10 uM after 24 hrs by Annexin V-FITC/propidium iodide staining based flow cytometry (reference value: 3.2%); format: functional
K562 [11] = experiment: Induction of apoptosis in human K562 cells assessed as late apoptotic cells at 10 uM after 24 hrs by Annexin V-FITC/propidium iodide staining based flow cytometry (reference value: 1.9%); format: functional
K562 [12] = experiment: Induction of apoptosis in human K562 cells assessed as necrotic cells at 10 uM after 24 hrs by Annexin V-FITC/propidium iodide staining based flow cytometry (reference value: 0.6%); format: functional
K562 [13] = experiment: Induction of apoptosis in human K562 cells at 10 uM by Annexin V-FITC/propidium iodide staining based flow cytometry; format: functional, cell-based; conditions: TDE = time-dependent effect
[14] = Induction of nanoparticle formation in ultrapure water assessed as nanoparticle size at 0.1 uM by transmission electron microscopic method
[15] = Induction of nanoparticle solid formation assessed as nanoparticle size at 0.1 uM by scanning electron microscopic method
[16] = Induction of nanoparticle solid formation assessed as nanoparticle size at 1 uM by scanning electron microscopic method
[17] = Induction of nanoparticle solid formation assessed as nanoparticle size at 10 uM by scanning electron microscopic method
Plasma [18] = experiment: Induction of nanoparticle formation in rat plasma assessed as nanoparticle size at 0.1 uM by atomic force microscopy; format: cell-free
Plasma [19] = experiment: Induction of nanoparticle formation in rat plasma assessed as nanoparticle size at 1 uM by atomic force microscopy; format: cell-free
Plasma [20] = experiment: Induction of nanoparticle formation in rat plasma assessed as nanoparticle size at 10 uM by atomic force microscopy; format: cell-free
HCT-8 = experiment: Antiproliferative activity against human HCT8 cells after 48 hrs by MTT assay; format: functional, cell-based; conditions: HCT-8, 48 h
HL-60 = experiment: Antiproliferative activity against human HL60 cells after 48 hrs by MTT assay; format: functional, cell-based; conditions: HL-60, 48 h
A549 = experiment: Antiproliferative activity against human A549 cells after 48 hrs by MTT assay; format: functional, cell-based; conditions: A549, 48 h
Bos taurus [21] = species: Bos taurus; experiment: Binding affinity to calf thymus DNA assessed as fluorescence quenching by measuring bathochromic shift by spectrofluorometric method
[22] = Drug uptake in nucleus of human HeLa cells at 40 uM by fluorescence microscopy; format: ADME, cell-based; conditions: TDE = time-dependent effect
[23] = Drug uptake in nucleus of human SH-SY5Y cells at 40 uM by fluorescence microscopy; format: ADME; conditions: TDE = time-dependent effect
CCRF S-180 [24] = experiment: Antitumor activity against mouse S180 cells implanted in ICR mouse assessed as decrease in tumor weight administered intraperitoneally daily for 10 days and measured after 24 hrs last dose; format: functional
Mus musculus [25] = experiment: Downregulation of P-selectin expression in ip dosed ICR mouse serum implanted with mouse S180 cells by ELISA; format: functional, organism-based
Mus musculus [26] = experiment: Downregulation of TNFalpha levels in ip dose ICR mouse serum implanted with mouse S180 cells by ELISA; format: functional, organism-based
Mus musculus [27] = experiment: Antiinflammatory activity in ICR mouse assessed as inhibition of xylene-induced ear edema at 1 umol/kg, po pretreated for 30 mins followed by xylene administration measured after 2 hrs relative to control; format: functional, organism-based
Mus musculus [28] = experiment: Antiinflammatory activity in xylene induced ICR mouse ear edema model assessed as decrease in serum TNFalpha level at 1 umol/kg, po pretreated for 30 mins followed by xylene administration measured after 2 hrs by ELISA; format: functional, organism-based
Mus musculus [29] = experiment: Antiinflammatory activity in xylene induced ICR mouse ear edema model assessed as decrease in serum IL2 level at 1 umol/kg, po pretreated for 30 mins followed by xylene administration measured after 2 hrs by ELISA; format: functional, organism-based
Mus musculus [30] = experiment: Potency index, ratio of compound effect to aspirin effect for antiinflammatory activity in ICR mouse assessed as inhibition of xylene-induced ear edema; format: functional
[31] = Induction of nanoparticle formation in ultrapure water by transmission electron microscopic method
[32] = Induction of nanoparticle solid formation by scanning electron microscopic method
Plasma [33] = experiment: Induction of nanoparticle formation in rat plasma by atomic force microscopy; format: cell-free
[34] = Induction of nanoparticle formation in ultrapure water assessed as Farady-Tyndall effect at 1 uM under 650 nanometer laser beam irradiation
[35] = Induction of nanoparticle formation in ultrapure water assessed as Farady-Tyndall effect at 1 uM
[36] = Induction of nanoparticle formation in ultrapure water assessed as nanoparticle size at 1 uM under 650 nanometer laser beam irradiation
[37] = Induction of nanoparticle formation in ultrapure water assessed as zeta potential at 1 uM under 650 nanometer laser beam irradiation
Bos taurus [38] = species: Bos taurus; experiment: Binding affinity to calf thymus DNA by UV spectrum analysis
Bos taurus [39] = species: Bos taurus; experiment: Binding affinity to calf thymus DNA by CD spectrum analysis
[40] = Drug uptake in nucleus of human HT-29 cells at 40 uM by fluorescence microscopy; format: ADME; conditions: TDE = time-dependent effect
CCRF S-180 [41] = experiment: Potency index, ratio of compound effect to doxorubicin effect for antitumor activity against mouse S180 cells implanted in ICR mouse assessed as decrease in tumor weight; format: functional
CCRF S-180 [42] = experiment: Antitumor activity against mouse S180 cells implanted in ICR mouse assessed as decrease in tumor size at 0.01 to 1 umol/kg, ip administered daily for 10 days and measured 24 hrs post last dose; format: functional, organism-based
CCRF S-180 [43] = experiment: Antitumor activity against mouse S180 cells implanted in ICR mouse assessed as decrease in tumor weight at 2 umol/kg, ip administered daily for 10 days and measured 24 hrs post last dose; format: functional, organism-based

For CC(=O)Oc1ccccc1C(=O)O, which inhibition (Mus musculus [1]) is on record?
Its inhibition is “Active”.

Which Activity [2] does the source give for N=C(NCCC[C@H](NC(=O)c1cc2c(cn1)[nH]c1ccccc12)C(=O)OCc1ccccc1)N[N+](=O)[O-] here?
Its Activity is 10.8 to 116 nm.

And the Activity [3]?
Its Activity is 43.9 to 176 nm.

What about the IC50 (K562 [4]) of the same molecule?
Its IC50 is 15.3 to 74.1 µM.

What about the IC50 (HT-29) of the same molecule?
The IC50 was 15.3 to 74.1 µM.

And the IC50 (HeLa)?
Its IC50 is 15.3 to 74.1 µM.

What about the IC50 (SH-SY5Y) of the same molecule?
The IC50 was 15.3 to 74.1 µM.

What about the Activity (K562 [5]) of the same molecule?
Its Activity is 9%.

And the Activity (K562 [6])?
Its Activity is 3.5%.

What about the Activity (K562 [7]) of the same molecule?
The Activity was 73%.

What about the Activity (K562 [8]) of the same molecule?
Its Activity is 14.5%.

And the Activity (K562 [9])?
The Activity was 25.5%.

And the Activity (K562 [10])?
The Activity was 60.7%.

And the Activity (K562 [11])?
The Activity was 12.4%.

And the Activity (K562 [12])?
Its Activity is 1.4%.

And the Activity (K562 [13])?
The Activity was “Tde”.

And the Activity [14]?
Its Activity is 8 to 72.7 nm.

And the Activity [15]?
The Activity was 28.6 to 88.9 nm.

What about the Activity [16] of the same molecule?
The Activity was 33.3 to 100 nm.

What about the Activity [17] of the same molecule?
The Activity was 44.4 to 111 nm.

What about the Activity (Plasma [18]) of the same molecule?
The Activity was 68.6 to 78.4 nm.

What about the Activity (Plasma [19]) of the same molecule?
The Activity was 78.5 to 98 nm.

And the Activity (Plasma [20])?
The Activity was 102 to 109 nm.

And the IC50 (HCT-8)?
The IC50 was 15.3 to 74.1 µM.

And the IC50 (HL-60)?
The IC50 was 15.3 to 74.1 µM.

And the IC50 (A549)?
Its IC50 is 15.3 to 74.1 µM.

What about the Activity (Bos taurus [21]) of the same molecule?
The Activity was “Dose-dependent effect”.

What about the Drug uptake [22] of the same molecule?
Its Drug uptake is “Tde”.

And the Drug uptake [23]?
The Drug uptake was “Tde”.

What about the Activity (CCRF S-180 [24]) of the same molecule?
Its Activity is “Dose-dependent effect”.

And the MED (CCRF S-180 [24])?
Its MED is 0.01 µmol/kg.

And the Activity (Mus musculus [25])?
The Activity was “Dose-dependent effect”.

And the Activity (Mus musculus [26])?
Its Activity is “Dose-dependent effect”.

What about the inhibition (Mus musculus [27]) of the same molecule?
Its inhibition is “Active”.

And the Activity (Mus musculus [28])?
Its Activity is “Active”.

What about the Activity (Mus musculus [29]) of the same molecule?
Its Activity is “Active”.

And the Ratio (Mus musculus [30])?
The Ratio was 16.7.

And the Activity [31]?
The Activity was “Dose-dependent effect”.

And the Activity [32]?
Its Activity is “Dose-dependent effect”.

And the Activity (Plasma [33])?
The Activity was “Dose-dependent effect”.

And the Activity [34]?
Its Activity is “Active”.

And the Activity [35]?
The Activity was “inactive”.

What about the Activity [36] of the same molecule?
The Activity was 165 nm.

And the Activity [37]?
Its Activity is -14.2 mV.

And the Activity (Bos taurus [38])?
Its Activity is “Dose-dependent effect”.

What about the Activity (Bos taurus [39]) of the same molecule?
Its Activity is “Dose-dependent effect”.

What about the Drug uptake [40] of the same molecule?
The Drug uptake was “Tde”.

And the Ratio (CCRF S-180 [41])?
The Ratio was 2.

And the Activity (CCRF S-180 [42])?
Its Activity is “Active”.

For COc1cccc2c1C(=O)c1c(O)c3c(c(O)c1C2=O)C[C@@](O)(C(=O)CO)C[C@@H]3O[C@H]1C[C@H](N)[C@H](O)[C@H](C)O1, which Activity (CCRF S-180 [43]) is on record?
Its Activity is “Active”.
